From US20250171451A1, “NOVEL HETEROCYCLIC COMPOUND AND PHARMACEUTICAL COMPOSITION COMPRISING SAME” (Samjin Pharmaceutical Co., Ltd., priority 2022, published 2025)

What was measured:
[1] = tested on: TEAD response element (TRE) luciferase reporter in MCF-7 cell lines; assay: TEAD response element (TRE) reporter assay; type: cell-based; details: Homo sapiens, MCF7; 0.2 μM compound, 24 hours, MCF-7 TEAD reporter cells, relative to vehicle (1% DMSO)
Method in brief: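 MCF-7 cells stably carrying a TRE-driven firefly luciferase reporter, treated 24 h after plating with compound at 0.2 μM final (1% DMSO) in serum-free medium for 24 h. Luminescence expressed relative to vehicle control set at 10000.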

[2] = molecular target: T1, recombinant GST-TEAD1 proteins (209 to 426 a.a.) (Homo sapiens, UniProt P28347); assay: Evaluation of palmitoylation of TEAD protein; type: biochemical; details: 5 μM compound, 15 minutes preincubation, 3 μM alkyne palmitoyl-CoA 30 minutes, pH 6.4, vs DMSO control
T1 construct: recombinant GST-TEAD1 proteins (209 to 426 a.a.)
Method in brief: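 GST-TEAD1 (aa 209–426) preincubated 15 min with 5 μM compound, then autopalmitoylated 30 min with 3 μM alkyne palmitoyl-CoA in 50 mM MES pH 6.4; stopped with 1% SDS. Click biotinylation, SDS-PAGE and streptavidin-HRP blot; band intensity relative to DMSO control, normalised to anti-GST signal.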

[3] = tested on: NF2-deficient mesothelioma cell line NCI-H226; assay: Evaluation of inhibition of cancer cell proliferation (CellTiter-Glo); type: cell-based; details: Homo sapiens, 120 h, NCI-H226 cells, five days treatment, 2% FBS, read-out: Cancer cell growth inhibition NCI-H226 (GI50)
Method: The NF2-deficient mesothelioma cell line NCI-H226 was purchased from ATCC (#CRL-5826). NCI-H226 cells were cultured in RRPMI medium (ATCC) containing penicillin (100 units/mL), streptomycin (100 μg/mL) and 10% fetal bovine serum (FBS) at 37° C. and 5% CO2.
In 24 hours after dispensing said NCI-H226 cells into a 96-well plate, the cell culture medium was removed all, and then each compound corresponding to a certain concentration section (0.01, 0.05, 0.1, 0.5, 1, 5, 10 μM) or a vehicle solvent (final 1% DMSO) was diluted with a culture medium containing 2% FBS, treated at 100 μL for each well, and then cultured at 37° C. and 5% CO2. In five days after said treatment, CellTiter-Glo@2.0 Reagent (Promega) was treated in the same amount as the culture medium to measure cell growth, and placed in a shaker for two minutes so as to be well mixed, after which the plate was cultured at room temperature for ten minutes to stabilize a luminescence signal. After that, for ATP measurement through an intracellular luciferase reaction, the luminescence signal was measured using a microplate reader (TECAN). The value of the […] (GI50) at the moment when the cell proliferation was reduced by half was derived using the SoftMax Pro 5.4.1 program, and the results are shown in table 10 below.

T1 sequence (P28347 209-426): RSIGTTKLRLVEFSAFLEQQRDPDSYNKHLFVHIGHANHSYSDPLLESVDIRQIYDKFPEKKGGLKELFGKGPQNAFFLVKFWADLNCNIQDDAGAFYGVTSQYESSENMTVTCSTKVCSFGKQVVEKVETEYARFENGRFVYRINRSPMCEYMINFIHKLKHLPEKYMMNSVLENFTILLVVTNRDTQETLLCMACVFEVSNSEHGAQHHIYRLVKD

SMILES | inhibition at 0.2 µM [1] | inhibition at 5 µM [2] | GI50 [3]
C=CC(=O)Nc1cnc2c(c1)c(C)nn2-c1ccc(C(F)(F)F)nc1 [Compound 77, N-(3-methyl-1-(6-(trifluoromethyl)pyridin-3-yl)-1H-pyrazolo[3,4-b]pyridin-5-yl)acrylamide] | > 50% | 40 to 80% | 30 nM
C=CC(=O)Nc1cnc2c(c1)c(C)cn2Cc1ccc(C(F)(F)F)cc1 [Compound 3, N-(3-methyl-1-(4-(trifluoromethyl)benzyl)-1H-pyrrolo[2,3-b]pyridin-5-yl)acrylamide] | > 50% | > 80% | 70 nM
C=CC(=O)Nc1cnc2c(c1)c(C)nn2-c1cnc(C(F)(F)F)nc1 [Compound 95, N-(3-methyl-1-(2-(trifluoromethyl)pyrimidin-5-yl)-1H-pyrazolo[3,4-b]pyridin-5-yl)acrylamide] | > 50% | 40 to 80% | 300 nM
C=CC(=O)N(C)c1cnc2c(c1)c(C)nn2-c1ccc(OC(F)(F)F)cc1 [Compound 90, N-methyl-N-(3-methyl-1-(4-(trifluoromethoxy)phenyl)-1H-pyrazolo[3,4-b]pyridin-5-yl)acrylamide] | > 50% | > 80% | 30 nM
C=CC(=O)Nc1cnc2c(c1)c(Cl)cn2Cc1ccc(C(F)(F)F)cc1 [Compound 43, N-(3-chloro-1-(4-(trifluoromethyl)benzyl)-1H-pyrrolo[2,3-b]pyridin-5-yl)acrylamide] | > 50% | > 80% | 220 nM
C=CC(=O)Nc1cnc2c(c1)c(C)nn2-c1ccc(C(F)(F)F)cc1 [Compound 42, N-(3-methyl-1-(4-(trifluoromethyl)phenyl)-1H-pyrazolo[3,4-b]pyridin-5-yl)acrylamide] | > 50% | > 80% | 10 nM
C=CC(=O)Nc1cnc2c(c1)c(C)cn2-c1ccc(C(F)(F)F)cc1 [Compound 27, N-(3-methyl-1-(4-(trifluoromethyl)phenyl)-1H-pyrrolo[2,3-b]pyridin-5-yl)acrylamide] | > 50% | > 80% | 80 nM
C=CC(=O)N(C)c1cnc2c(c1)c(C)nn2-c1ccc(C(F)(F)F)cc1 [Compound 86, N-methyl-N-(3-methyl-1-(4-(trifluoromethyl)phenyl)-1H-pyrazolo[3,4-b]pyridin-5-yl)acrylamide] | > 50% | > 80% | 30 nM
C=CC(=O)Nc1cnc2c(c1)c(C)nn2-c1cc(Cl)c(Cl)cc1C [Compound 105] | > 50% | 40 to 80% | 260 nM
C=CC(=O)Nc1cnc2c(c1)c(C)cn2-c1ccc(Cl)cc1 [Compound 54, N-(1-(4-chlorophenyl)-3-methyl-1H-pyrrolo[2,3-b]pyridin-5-yl)acrylamide] | > 50% | 40 to 80% | 170 nM
C=CC(=O)N(C)c1cnc2c(c1)c(C)nn2-c1ccc(C(F)(F)F)nc1 [Compound 92, N-methyl-N-(3-methyl-1-(6-(trifluoromethyl)pyridin-3-yl)-1H-pyrazolo[3,4-b]pyridin-5-yl)acrylamide] | > 50% | 40 to 80% | 50 nM
C=CC(=O)Nc1cnc2c(c1)c(Br)cn2Cc1ccc(C(F)(F)F)cc1 [Compound 40, N-(3-bromo-1-(4-(trifluoromethyl)benzyl)-1H-pyrrolo[2,3-b]pyridin-5-yl)acrylamide] | > 50% | > 80% | 220 nM
C=CC(=O)Nc1cnc2c(c1)c(C)nn2-c1ccc(Cl)cc1 [Compound 65, N-(1-(4-chlorophenyl)-3-methyl-1H-pyrazolo[3,4-b]pyridin-5-yl)acrylamide] | > 50% | > 80% | 50 nM
C=CC(=O)Nc1cnc2c(c1)c(C)cn2-c1cccc(C(F)(F)F)c1 [Compound 50, N-(3-methyl-1-(3-(trifluoromethyl)phenyl)-1H-pyrrolo[2,3-b]pyridin-5-yl)acrylamide] | > 50% | > 80% | 280 nM
C=CC(=O)Nc1cnc2c(c1)c(C)nn2-c1ccc(OC(F)(F)F)cc1 [Compound 66, N-(3-methyl-1-(4-(trifluoromethoxy)phenyl)-1H-pyrazolo[3,4-b]pyridin-5-yl)acrylamide] | > 50% | > 80% | 50 nM
C=CC(=O)Nc1cnc2c(n1)c(C)cn2-c1ccc(C(F)(F)F)cc1 [Compound 41, N-(7-methyl-5-(4-(trifluoromethyl)phenyl)-5H-pyrrolo[2,3-b]pyrazin-2-yl)acrylamide] | > 50% | 40 to 80% | 
C=CC(=O)Nc1cc2ccn(Cc3ccc(C(F)(F)F)cc3)c2cn1 [Compound 29, N-(1-(4-(trifluoromethyl)benzyl)-1H-pyrrolo[2,3-c]pyridin-5-yl)acrylamide] | < 30% | 40 to 80% | 
